Experimental data from patent publication US20220073521A1, “PYRIMIDINE AND FIVE-MEMBERED NITROGEN HETEROCYCLE DERIVATIVE, PREPARATION METHOD THEREFOR, AND MEDICAL USES THEREOF” (Tuojie Biotech (Shanghai) Co., Ltd., priority 2018, published 2022).
Where two headings read alike, the source gives them in different places.

Key:
hERG potassium channel = target: T1, hERG potassium channel (Homo sapiens, UniProt Q12809); assay: hERG current inhibition experiment (manual patch clamp, CHO hERG cells); format: cell-based; conditions: whole-cell patch clamp, tail current
T1 construct: host or cells: CHO hERG cells
T1 sequence (Q12809 whole entry): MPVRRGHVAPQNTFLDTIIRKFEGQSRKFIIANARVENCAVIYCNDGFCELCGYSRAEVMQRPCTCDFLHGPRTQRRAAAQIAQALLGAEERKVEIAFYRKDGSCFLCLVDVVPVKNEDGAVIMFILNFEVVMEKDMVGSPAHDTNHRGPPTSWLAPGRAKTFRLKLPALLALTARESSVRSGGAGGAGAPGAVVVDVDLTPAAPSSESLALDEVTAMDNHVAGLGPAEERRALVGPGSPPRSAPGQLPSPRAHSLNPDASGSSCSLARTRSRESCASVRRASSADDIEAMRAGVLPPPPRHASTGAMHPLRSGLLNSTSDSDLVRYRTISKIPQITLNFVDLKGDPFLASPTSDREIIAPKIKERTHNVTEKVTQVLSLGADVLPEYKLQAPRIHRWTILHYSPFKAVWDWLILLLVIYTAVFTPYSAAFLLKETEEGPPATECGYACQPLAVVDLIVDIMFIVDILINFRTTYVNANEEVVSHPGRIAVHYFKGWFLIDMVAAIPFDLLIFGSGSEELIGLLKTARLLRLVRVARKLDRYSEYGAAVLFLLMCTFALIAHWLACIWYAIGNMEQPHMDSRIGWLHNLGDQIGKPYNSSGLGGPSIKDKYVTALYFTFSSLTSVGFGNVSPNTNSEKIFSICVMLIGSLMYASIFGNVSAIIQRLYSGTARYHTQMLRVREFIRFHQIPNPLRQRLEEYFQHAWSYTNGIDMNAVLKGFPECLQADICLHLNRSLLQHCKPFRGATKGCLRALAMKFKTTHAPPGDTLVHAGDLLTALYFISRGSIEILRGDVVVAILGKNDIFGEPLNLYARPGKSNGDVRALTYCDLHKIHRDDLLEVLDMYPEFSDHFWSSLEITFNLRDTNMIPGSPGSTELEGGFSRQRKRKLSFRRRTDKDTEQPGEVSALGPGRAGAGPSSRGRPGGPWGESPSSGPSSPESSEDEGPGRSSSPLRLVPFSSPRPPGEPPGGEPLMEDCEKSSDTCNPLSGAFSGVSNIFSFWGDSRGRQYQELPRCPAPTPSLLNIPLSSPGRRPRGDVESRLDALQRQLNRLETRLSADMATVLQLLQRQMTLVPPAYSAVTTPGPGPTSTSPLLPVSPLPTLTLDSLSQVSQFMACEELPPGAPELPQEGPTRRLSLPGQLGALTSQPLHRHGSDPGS
Procedure: In this experiment, whole-cell current recording was performed using a manual patch clamp system (HEKA EPC-10 signal amplification and digital conversion system, purchased from HEKA Electronic, Germany). The round glass slide of which surface CHO hERG cells (provided by Sophion Bioscience Inc., Denmark, the cell generation number was P21) were grown on was placed in an electrophysiological recording slot under an inverted microscope. The recording slot was continuously perfused with extracellular fluid (approximately 1 mL per minute). Conventional whole-cell patch clamp current recording technique was used in the experiment. The experiments were performed at normal room temperature (˜25° C.). The cells were clamped at a voltage of −80 mV. Cell patch clamp voltage was depolarized to +20 mV to activate hERG potassium channel, and to −50 mV after 5 seconds to eliminate inactivation and generate tail currents. The tail current peak was used as a value of hERG current. When the hERG potassium current recorded in the above steps became steady under continuous perfusion of the extracellular fluid in the recording slot, the drug to be tested could be added to the perfusion, until the inhibition effect of the drug on hERG current reached a steady state. Generally, the overlapping of most recent three consecutive current recording lines was used as a criterion to determine whether the state was stable. After reaching the steady state, the recording slot was perfused with extracellular fluid until the hERG current returned to the value before the drug adding. The test data was analyzed by HEKA Patchmaster (V2x73.2), Microsoft Excel and the data analysis software provided by Graphpad Prism 5.0.

[1] = Pharmacokinetics assay in rats; format: in vivo, SD rats; conditions: rat; for AUC / clearance / half-life / bioavailability / Cmax: male, SD, plasma; for AUC: read-out: Area under curve AUC; for clearance: read-out: Clearance CL_obs; for half-life: read-out: Half-life T1/2 (converted); for bioavailability: PO 5 mg/kg vs IV 1 mg/kg, read-out: Bioavailability F; for Cmax: read-out: Maximum plasma concentration Cmax
Procedure: Rats were used as test animals. The drug concentration in plasma at different time points was determined by LC/MS/MS method after intravenous administration or intragastrical administration of the compound of the present invention to rats. The pharmacokinetic behavior of the compound of the present invention was studied and evaluated in rats.
The atropisomer with a RT of 1.495 minutes in Examples 3 and 4, compounds of Example 17, Example 41 and Example 43.
Healthy male SD rats (6-8 weeks old), 3 rats per group.
Intravenous administration: A certain amount of the test compound was weighed, to which 10% by volume of N,N-dimethylacetamide, 33% by volume of triethylene glycol and 57% by volume of water were added to prepare a 1 mg/mL colorless, clear and transparent solution;
Intragastrical administration: A certain amount of the test compound was weighed, to which 0.5% by mass of hypromellose, 0.1% by volume of Tween 80 and 99.4% by volume of water were added to prepare a 1 mg/mL white suspension.
After an overnight fast, the SD rats were intravenously administered the test compound at an administration dose of 1 mg/kg, or intragastrically administered the test compound at an administration dose of 5 mg/kg.
(§1) The rats were intravenously administered the compound of the present invention. 0.2 ml of blood was taken from the jugular vein at 0.083, 0.25, 0.5, 1, 2, 4, 8 and 24 hours after the administration. The samples were placed in tubes containing EDTA-K2, and centrifuged at 4000 rpm and 4° C. for 5 minutes to separate the blood plasma. The plasma samples were stored at −75° C.
as §1, with “Or, the rats” for “The rats”, “were intragastrically” for “were intravenously”, “at” for “at 0.083,”
The content of the test compound in the plasma of rat after intragastrical administration of the test compound at different concentrations was determined: 50 μL of rat plasma at each time after administration was taken, to which 200 μL of a solution (50 ng/mL) of internal standard dexamethasone in acetonitrile was added. The plasma was vortex-mixed for 30 seconds, and centrifuged at 4700 rpm and 4° C. for 15 minutes. The supernatant was taken from the plasma samples, and a three-fold dilution was carried out by adding water. 2.0 μL of the supernatant was used for LC/MS/MS analysis.

Structure (SMILES)	IC50 (hERG potassium channel) [µM]	AUC ([1]; IV 1 mg/kg) [µg·h/mL]	clearance ([1]; IV 1 mg/kg) [L/h/kg]	half-life ([1]; IV 1 mg/kg) [h]	bioavailability [1] [%]	AUC ([1]; PO 5 mg/kg) [µg·h/mL]	half-life ([1]; PO 5 mg/kg) [h]	Cmax ([1]; PO 5 mg/kg) [µg/mL]	Apparent distribution volume Vss_obs ([1]; IV 1 mg/kg) [L/kg]
CNc1nccc(Sc2c(C)nc(N3CCC4(CC3)Cc3ncccc3[C@H]4N)n3ccnc23)c1Cl [Example 41, (S)-1′-(8-((3-Chloro-2-(methylamino)pyridin-4-yl)thio)-7-methylimidazo[1,2-c]pyrimidin-5-yl)-5,7-dihydrospiro[cyclopenta[b]pyridine-6,4′-piperidin]-5-amine]	10.2	1.13 ± 0.21	0.876 ± 0.156	5.33 ± 0.11	67.6 ± 10.9	3.88 ± 0.631	4.22 ± 0.11	0.339 ± 0.088	4.75 ± 0.72
CNc1nccc(Sc2cnc(N3CCC4(CC3)Cc3ncccc3[C@H]4N)n3ccnc23)c1Cl [Example 43, (S)-1′-(8-((3-Chloro-2-(methylamino)pyridin-4-yl)thio)imidazo[1,2-c]pyrimidin-5-yl)-5,7-dihydrospiro[cyclopenta[b]pyridine-6,4′-piperidin]-5-amine]	10.3	6.64 ± 1.36	0.151 ± 0.0312	4.71 ± 0.27	75.4 ± 7.5	25.2 ± 2.5	4.17 ± 0.14	2.51 ± 0.405	0.765 ± 0.082
